Data as given in ChEMBL document CHEMBL6120982, “Cell-penetrating anti-sense peptide nucleic acids targeting sulfatase 2 inhibit adipogenesis in human mesenchymal stem cells” (Bioorg Med Chem, 2024).
Activity calls are given as the source filed them. The rule behind the calls is not given here.

Assays:
Mesenchymal stem cells [1] = assay: Cytotoxicity against human BMMSC cells assessed as effect on cell viability upto 1 uM incubated for 24 hrs by CCK8 assay; format: toxicity, cell-based
DNA [2] = assay: Binding affinity to N-terminal of 10-mer c-DNA (unknown origin) assessed as melting temperature at 4 uM by UV-Vis spectrophotometric analysis; format: nucleic-acid assay
DNA [3] = assay: Binding affinity to C-terminal of 10-mer c-DNA (unknown origin) assessed as melting temperature at 4 uM by UV-Vis spectrophotometric analysis; format: nucleic-acid assay
Mesenchymal stem cells [4] = assay: Inhibition of SULF2 mRNA expression in human BMMSC cells at 0.1 uM by RT-qPCR analysis; format: functional, cell-based
Mesenchymal stem cells [5] = assay: Effect on osteogenesis in ascorbic acid/dexamethasone/beta-glycerol phosphate differentiated human BMMSC cells; format: functional, cell-based
DNA [6] = assay: Binding affinity to 10-mer DNA (unknown origin) assessed as melting temperature at 4 uM by UV-Vis spectrophotometric analysis; format: nucleic-acid assay

Row | Tm (DNA [6]) | Structure (SMILES) | also measured
1 | 75.9 °C | NCCCCCNc1nc(N)c2ncn(CC(=O)N(CCNC(=O)CN(CCNC(=O)CN(CCNC(=O)CN(CCNC(=O)CN(CCN)C(=O)Cn3cnc4c(=O)[nH]c(N)nc43)C(=O)Cn3ccc(N)nc3=O)C(=O)Cn3cnc4c(N)ncnc43)C(=O)Cn3cnc4c(=O)[nH]c(N)nc43)CC(=O)NCCN(CC(=O)NCCN(CC(=O)NCCN(CC(=O)NCCN(CC(=O)NCCN(CC(N)=O)C(=O)Cn3cnc4c(=O)[nH]c(N)nc43)C(=O)Cn3cnc4c(N)ncnc43)C(=O)Cn3cnc4c(=O)[nH]c(N)nc43)C(=O)Cn3ccc(N)nc3=O)C(=O)Cn3cnc4c(=O)[nH]c(N)nc43)c2n1 | 
2 | 69.2 °C | NCCCCCNc1nc(N)c2ncn(CC(=O)N(CCNC(=O)CN(CCNC(=O)CN(CCNC(=O)CN(CCNC(=O)CN(CCNC(=O)CN(CCN)C(=O)Cn3cnc4c(N)ncnc43)C(=O)Cn3cnc4c(=O)[nH]c(N)nc43)C(=O)Cn3ccc(N)nc3=O)C(=O)Cn3cnc4c(N)ncnc43)C(=O)Cn3ccc(N)nc3=O)CC(=O)NCCN(CC(=O)NCCN(CC(=O)NCCN(CC(=O)NCCN(CC(N)=O)C(=O)Cn3cnc4c(N)ncnc43)C(=O)Cn3ccc(N)nc3=O)C(=O)Cn3cnc4c(N)ncnc43)C(=O)Cn3cnc4c(=O)[nH]c(N)nc43)c2n1 | 
3 | 77.2 °C | NCCOCc1cc2cn(CC(=O)N(CCNC(=O)CN(CCNC(=O)CN(CCNC(=O)CN(CCNC(=O)CN(CCN)C(=O)Cn3ccc(N)nc3=O)C(=O)Cn3cnc4c(N)ncnc43)C(=O)Cn3cnc4c(=O)[nH]c(N)nc43)C(=O)Cn3cnc4c(N)ncnc43)CC(=O)NCCN(CC(=O)NCCN(CC(=O)NCCN(CC(=O)NCCN(CC(=O)NCCN(CC(N)=O)C(=O)Cn3ccc(N)nc3=O)C(=O)Cn3cnc4c(=O)[nH]c(N)nc43)C(=O)Cn3cnc4c(N)ncnc43)C(=O)Cn3cnc4c(=O)[nH]c(N)nc43)C(=O)Cn3cnc4c(N)ncnc43)c(=O)nc2[nH]1 | 
4 | 65.2 °C | NCCN(CC(=O)NCCN(CC(=O)NCCN(CC(=O)NCCN(CC(=O)NCCN(CC(=O)NCCN(CC(=O)NCCN(CC(=O)NCCN(CC(=O)NCCN(CC(=O)NCCN(CC(N)=O)C(=O)Cn1cnc2c(N)ncnc21)C(=O)Cn1ccc(N)nc1=O)C(=O)Cn1cnc2c(N)ncnc21)C(=O)Cn1cnc2c(=O)[nH]c(N)nc21)C(=O)Cn1cnc2c(N)ncnc21)C(=O)Cn1ccc(N)nc1=O)C(=O)Cn1cnc2c(N)ncnc21)C(=O)Cn1ccc(N)nc1=O)C(=O)Cn1cnc2c(=O)[nH]c(N)nc21)C(=O)Cn1cnc2c(N)ncnc21 | 
5 | 66.2 °C | Cc1cn(CC(=O)N(CCN)CC(=O)NCCN(CC(=O)NCCN(CC(=O)NCCN(CC(=O)NCCN(CC(=O)NCCN(CC(=O)NCCN(CC(=O)NCCN(CC(=O)NCCN(CC(=O)NCCN(CC(N)=O)C(=O)Cn2cnc3c(N)ncnc32)C(=O)Cn2ccc(N)nc2=O)C(=O)Cn2cnc3c(=O)[nH]c(N)nc32)C(=O)Cn2cnc3c(N)ncnc32)C(=O)Cn2ccc(N)nc2=O)C(=O)Cn2cnc3c(N)ncnc32)C(=O)Cn2cnc3c(=O)[nH]c(N)nc32)C(=O)Cn2cnc3c(N)ncnc32)C(=O)Cn2ccc(N)nc2=O)c(=O)[nH]c1=O | 
6 | 76.4 °C | Cc1cn(CC(=O)N(CCN)CC(=O)NCCN(CC(=O)NCCN(CC(=O)NCCN(CC(=O)NCCN(CC(=O)NCCN(CC(=O)NCCN(CC(=O)NCCN(CC(=O)NCCN(CC(=O)NCCN(CC(N)=O)C(=O)Cn2cnc3c(N)ncnc32)C(=O)Cn2cc3cc(COCCN)[nH]c3nc2=O)C(=O)Cn2cnc3c(=O)[nH]c(N)nc32)C(=O)Cn2cnc3c(N)ncnc32)C(=O)Cn2cc3cc(COCCN)[nH]c3nc2=O)C(=O)Cn2cnc3c(N)ncnc32)C(=O)Cn2cnc3c(=O)[nH]c(N)nc32)C(=O)Cn2cnc3c(N)ncnc32)C(=O)Cn2ccc(N)nc2=O)c(=O)[nH]c1=O | 

Continued, molecule first:

Row | Structure (SMILES) | Tm (DNA [6]) | also measured
7 | Cc1cn(CC(=O)N(CCNC(=O)CN(CCNC(=O)CN(CCNC(=O)CN(CCNC(=O)CN(CCNC(=O)CN(CCNC(=O)CN(CCNC(=O)CN(CCNC(=O)CN(CCNC(=O)CN(CCNC(=O)CN(CCNC(=O)CN(CCNC(=O)CN(CCNC(=O)CN(CCNC(=O)CN(CCNC(=O)CN(CCNC(=O)CN(CCNC(=O)CN(CCNC(=O)CN(CCNC(=O)OCCC2c3ccccc3-c3ccccc32)C(=O)Cn2ccc(N)nc2=O)C(=O)Cn2cc3cc(COCCN)[nH]c3nc2=O)C(=O)Cn2ccc(N)nc2=O)C(=O)Cn2cc(C)c(=O)[nH]c2=O)C(=O)Cn2cnc3c(=O)[nH]c(NCCCCCCN)nc32)C(=O)Cn2ccc(N)nc2=O)C(=O)Cn2cc(C)c(=O)[nH]c2=O)C(=O)Cn2ccc(N)nc2=O)C(=O)Cn2cnc3c(=O)[nH]c(NCCCCCN)nc32)C(=O)Cn2ccc(N)nc2=O)C(=O)Cn2ccc(N)nc2=O)C(=O)Cn2cc(C)c(=O)[nH]c2=O)C(=O)Cn2cnc3c(=O)[nH]c(NCCCCCCN)nc32)C(=O)Cn2cc(C)c(=O)[nH]c2=O)C(=O)Cn2ccc(N)nc2=O)C(=O)Cn2ccc(N)nc2=O)C(=O)Cn2cnc3c(=O)[nH]c(NCCCCCCN)nc32)C(=O)Cn2cnc3c(=O)[nH]c(N)nc32)CC(=O)NCCN(N)C(=O)Cn2cnc3c(N)ncnc32)c(=O)[nH]c1=O |  | Activity (Mesenchymal stem cells [1]): Non-toxic; Tm (DNA [2]): 77 °C; Tm (DNA [3]): 63.5 °C; inhibition (Mesenchymal stem cells [4]): inactive; Activity (Mesenchymal stem cells [5]): inactive
8 | NCCN(CC(=O)NCCN(CC(=O)NCCN(CC(=O)NCCN(CC(=O)NCCN(CC(=O)NCCN(CC(=O)NCCN(CC(=O)NCCN(CC(=O)NCCN(CC(=O)NCCN(CC(N)=O)C(=O)Cn1ccc(N)nc1=O)C(=O)Cn1cnc2c(=O)[nH]c(N)nc21)C(=O)Cn1cnc2c(N)ncnc21)C(=O)Cn1cnc2c(=O)[nH]c(N)nc21)C(=O)Cn1cnc2c(N)ncnc21)C(=O)Cn1ccc(N)nc1=O)C(=O)Cn1cnc2c(N)ncnc21)C(=O)Cn1cnc2c(=O)[nH]c(N)nc21)C(=O)Cn1cnc2c(N)ncnc21)C(=O)Cn1ccc(N)nc1=O | 71 °C | 
9 | NCCCCCCNc1nc2c(ncn2CC(=O)N(CCNC(=O)CN(CCNC(=O)CN(CCNC(=O)CN(CCNC(=O)CN(CCNC(=O)CN(CCN)C(=O)Cn2cnc3c(=O)[nH]c(N)nc32)C(=O)Cn2ccc(N)nc2=O)C(=O)Cn2cnc3c(N)ncnc32)C(=O)Cn2cnc3c(=O)[nH]c(NCCCCCCN)nc32)C(=O)Cn2cnc3c(N)nc(NCCCCCN)nc32)CC(=O)NCCN(CC(=O)NCCN(CC(=O)NCCN(CC(=O)NCCN(CC(N)=O)C(=O)Cn2cnc3c(=O)[nH]c(N)nc32)C(=O)Cn2cnc3c(N)ncnc32)C(=O)Cn2cnc3c(=O)[nH]c(NCCCCCCN)nc32)C(=O)Cn2ccc(N)nc2=O)c(=O)[nH]1 | 74.8 °C | 
10 | NCCCCCCNc1nc2c(ncn2CC(=O)N(CCN)CC(=O)NCCN(CC(=O)NCCN(CC(=O)NCCN(CC(=O)NCCN(CC(=O)NCCN(CC(=O)NCCN(CC(=O)NCCN(CC(=O)NCCN(CC(=O)NCCN(CC(N)=O)C(=O)Cn2cnc3c(=O)[nH]c(N)nc32)C(=O)Cn2cnc3c(N)ncnc32)C(=O)Cn2cnc3c(=O)[nH]c(N)nc32)C(=O)Cn2ccc(N)nc2=O)C(=O)Cn2cnc3c(=O)[nH]c(N)nc32)C(=O)Cn2cnc3c(N)nc(NCCCCCN)nc32)C(=O)Cn2cnc3c(=O)[nH]c(N)nc32)C(=O)Cn2cnc3c(N)ncnc32)C(=O)Cn2ccc(N)nc2=O)c(=O)[nH]1 | 76.9 °C | 
